Test results: patent publication US11993576B2, “N-benzyl-N-arylsulfonamide derivative and preparation and use thereof” (Hangzhou Yirui Pharmaceutical Technology Co., Ltd, priority 2019, dated 2024)

Assays:
[1] = molecular target: human Kv1.3 (Homo sapiens, UniProt P22001); assay: IonWorks automated patch clamp assay of inhibitory activity against Kv1.3; format: cell-based; conditions: automated patch clamp method; CHO-K1 cells stably expressing human Kv1.3
Method in brief: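 CHO-K1 cells stably expressing human Kv1.3, perforated-patch IonWorks Quattro (amphotericin B 200 μg/mL internal), external solution pH 7.3. Compounds 0.00384-30 μM final, 0.3% DMSO, 600 s incubation; four 1 s pulses to 0 mV from −80 mV. Inhibition from peak current ratio after/before compound.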

[2] = molecular target: human Kv1.5 (Homo sapiens, UniProt P22460); assay: Conventional patch clamp assay of inhibitory activity against Kv1.5; format: cell-based; conditions: conventional patch-clamp method; CHO-K1 cells stably expressing human Kv1.5
Chain of human Kv1.5 (P22460 whole entry): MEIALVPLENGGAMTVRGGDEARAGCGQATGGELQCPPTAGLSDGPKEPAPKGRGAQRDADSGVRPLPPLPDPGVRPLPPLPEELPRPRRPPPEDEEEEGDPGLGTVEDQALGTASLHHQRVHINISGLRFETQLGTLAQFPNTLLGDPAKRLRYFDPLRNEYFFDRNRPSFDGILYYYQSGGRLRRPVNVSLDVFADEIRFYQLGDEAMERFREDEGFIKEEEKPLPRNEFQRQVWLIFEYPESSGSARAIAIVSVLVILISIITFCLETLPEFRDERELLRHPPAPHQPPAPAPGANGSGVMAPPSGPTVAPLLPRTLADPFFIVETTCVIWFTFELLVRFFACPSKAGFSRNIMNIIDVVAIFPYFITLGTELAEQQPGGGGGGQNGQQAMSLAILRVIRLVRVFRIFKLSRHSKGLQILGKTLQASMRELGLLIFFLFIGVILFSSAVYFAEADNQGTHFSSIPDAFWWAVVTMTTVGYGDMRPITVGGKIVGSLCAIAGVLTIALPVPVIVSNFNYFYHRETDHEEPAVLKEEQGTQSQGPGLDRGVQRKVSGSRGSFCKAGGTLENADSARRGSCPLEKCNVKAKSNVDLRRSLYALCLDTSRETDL
Method: III. Conventional Patch Clamp Assay of Inhibitory Activity Against Kv1.5
The principle and method for the conventional patch clamp method can be found in Grissmer et al. [Grissmer et al. Molecular Pharmacology 1994, 45:1227-1234].
Inhibitory activity of a compounds against Kv1.5 was assessed using a CHO-K1 recombinant cell line stably expressing human Kv1.5 (Charles River, Calif.). The cells were cultured in an F-12K culture medium containing 5% calf serum (Invitrogen, Carlsbad.ca) in an incubator at 37° C. and under air humidity with 6% CO2.
During the experiment, adherent cells were placed in a recording chamber under an inverted microscope. All the experiments were performed at room temperature. Each of the cells used itself as the control.
The test compounds were formulated to their final concentrations on the day of assay, and then dissolved in an extracellular fluid. The extracellular fluid (mM) was: NaCl, 137; KCl, 4; CaCl2, 1.8; MgCl2, 1; HEPES, 10; glucose 10; pH 7.4 (NaOH titration). All the solutions of the test compounds and the control compounds contained 0.3% of DMSO.
Each of the compounds was perfused by a gravity-driven perfusion system. At least two cells were tested for each of the concentrations of a compound. After the current was stable, the blocking effect of the compounds was calculated by comparing the change in the current before and after administration of the compounds.
1000 μM 4-AP was used as a positive control.
The cells were transferred to a perfusion chamber, and were perfused with the extracellular fluid. Intracellular fluid (mM): K-aspartate, 130; MgCl2, 5; EGTA 5; HEPES, 10; pH 7.2 (KOH titration). The intracellular fluid was stored in a small amount in a refrigerator at −80° C. in batches, and was thawed on the day of the experiment. The electrodes were drawn by PC-10 (Narishige, Japan). A whole-cell patch-clamp recording was performed, with the noise being filtered by one-fifth of the sampling frequency.
The cells were clamped at −80 mV and then depolarized to 20 mV with square waves lasting for 2 seconds to obtain a Kv1.5 current. This process was repeated every 20 seconds. The maximum current elicited by the square waves was detected. After the maximum current became stable, the test compounds were perfused. After the reaction was stable, the blocking strength was calculated.
Data was collected and analyzed using pCLAMP 10 (Molecular Devices, Union City, CA). A stable current meant a current which varies within a limited range over time. The value of the stable current was used to calculate the effect of a compound at this […].

Chain of human Kv1.3 (P22001 whole entry): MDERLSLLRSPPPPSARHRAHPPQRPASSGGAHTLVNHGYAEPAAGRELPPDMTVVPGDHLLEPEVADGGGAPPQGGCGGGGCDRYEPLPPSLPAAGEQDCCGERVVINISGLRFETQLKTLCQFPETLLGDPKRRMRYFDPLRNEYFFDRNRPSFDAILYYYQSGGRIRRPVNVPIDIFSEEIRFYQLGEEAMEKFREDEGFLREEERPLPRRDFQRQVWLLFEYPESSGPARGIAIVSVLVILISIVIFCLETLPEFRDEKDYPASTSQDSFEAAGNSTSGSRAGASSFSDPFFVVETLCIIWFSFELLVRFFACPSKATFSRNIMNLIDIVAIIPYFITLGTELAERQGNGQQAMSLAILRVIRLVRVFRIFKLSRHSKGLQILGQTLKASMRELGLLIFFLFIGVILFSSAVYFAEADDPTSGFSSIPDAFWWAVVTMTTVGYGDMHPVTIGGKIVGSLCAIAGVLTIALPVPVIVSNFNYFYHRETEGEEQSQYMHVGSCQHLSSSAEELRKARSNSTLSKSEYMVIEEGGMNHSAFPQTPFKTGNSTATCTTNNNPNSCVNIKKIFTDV

**Q.** Which IC50 [1] does the source give for `CC(C)CS(=O)(=O)N(Cc1ccc(F)cc1)c1ccc(N2CCN(C(=O)N(C)C)CC2)c(C#N)c1` [Compound 37, 4-(2-cyano-4-((N-(4-fluorobenzyl)-2-methylpropyl)sulfonamido)phenyl)-N,N-dimethylpiperazin-1-formamide] here?
**A.** 92 nM

**Q.** What about the IC50 [2] of the same compound?
**A.** 3650 nM
